Assay results: patent US12384777B2 (Tay Therapeutics Limited, priority 2019, dated 2025)
Like-named read-outs stand apart in the source and are kept apart here.

Assays:
[1] = Hydrolytic stability at a range of pHs; format: physicochemical; details: for decomposition at all pH values tested: pH 4.0, 5.5 and 7.4, text summary; for pH 4.0 % decomposition: pH 4.0 buffer; for pH 4.0 % decomposition / pH 5.5 % decomposition / pH 7.4 % decomposition: 60° C., 6 days; for pH 5.5 % decomposition: pH 5.5 buffer; for pH 7.4 % decomposition: pH 7.4 buffer
Procedure: To test the hydrolytic stability a 1 mg/mL solution of test materials was made in DMSO (0.1% solution). To 300 μL of each solution in a HPLC vials was added 1200 μL of one of the following: pH 4.0 buffer—left at 60° C. for 5 days. Samples taken t=0 hr and 6 days pH 5.5 buffer—left at 60° C. for 5 days. Samples taken t=0 hr and 6 days pH 7.4 buffer—left at 60° C. for 5 days. Samples taken t=0 hr and 6 days A 100 μL aliquot was taken at each time point and added to 900 μL of DMSO. This sample was used to determine % decomposition.
% decomposition was measured with a Bruker MicrOTOF II focus ESI Mass Spectrometer connected in parallel to Dionex Ultimate 3000 RSLC system with diode array detector.

[2] = Stability in human skin S9 fraction; format: in vitro ADME; details: human, human skin S9 fraction, pH 7.4; 0.3 mg/mL S9, NADPH, UDPGA, 0.5 μM compound; read-out: T1/2 (min) in human skin S9 fractions
Procedure: An incubation mixture was prepared containing 50 mM potassium phosphate buffer, pH 7.4), 0.3 mg/mL human skin S9 (Sekisui Xenotech), NADPH (final conc 0.8 mg/mL), UDPGA (final conc 0.16 mg/mL) and warmed to 37° C. for 5 min. The reaction was initiated upon addition of test compound (final concentration 0.5 μM). Immediately, at time zero, then at 3, 6, 15, 30, 60, 120 and 180 min, an aliquot (50 μL) of the incubation mixture was removed and mixed with acetonitrile (100 μL) to terminate the reaction. Internal standard was added to all samples, the samples centrifuged to sediment precipitated protein and the plates then sealed prior to UPLC-MS/MS analysis using a Quattro Premier XE (Waters corporation, USA).
Grafit (Erithacus Ltd) was used to calculate the exponential decay and consequently the rate constant (k) from the ratio of peak area of test compound to internal standard at each timepoint. The half life (T1/2) of each test compound was determined using the following equation: T1/2=0.693/k

BRD4 BD2 = BRD4 BD2 (Homo sapiens (Human), UniProt O60885); test: Bromodomain binding assay (T7 phage display, qPCR), BRD4 BD2; details: for Kd: read-out: BRD4 BD2 Kd
Procedure: T7 phage strains displaying bromodomains were grown in parallel in 24-well blocks in an E. coli host derived from the BL21 strain. E. coli were grown to log-phase and infected with T7 phage from a frozen stock (multiplicity of infection=0.4) and incubated with shaking at 32° C. until lysis (90-150 min). The lysates were centrifuged (5,000×g) and filtered (0.2 μm) to remove cell debris. Streptavidin-coated magnetic beads were treated with biotinylated small molecule or acetylated peptide ligands for 30 min at RT to generate affinity resins for bromodomain assays. The ligated beads were blocked with excess biotin and washed with blocking buffer (SeaBlock (Pierce), 1% BSA, 0.05% Tween 20, 1 mM DTT) to remove unbound ligand and to reduce non-specific phage binding. Binding reactions were assembled by combining bromodomains, ligated affinity beads, and test compounds in 1× binding buffer (16% SeaBlock, 0.32×PBS, 0.02% BSA, 0.04% Tween 20, 0.004% Sodium azide, 7.9 mM DTT). Test compounds were prepared as 1000× stocks in 100% DMSO and subsequently diluted 1:25 in MEG. The compounds were then diluted directly into the assays such that the final concentrations of DMSO and MEG were 0.1% and 2.4%, respectively. All reactions were performed in polypropylene 384-well plates in a final volume of 0.02 ml. The assay plates were incubated at RT with shaking for 1 hr and the affinity beads were washed with wash buffer (1×PBS, 0.05% Tween 20). The beads were then re-suspended in elution buffer (1×PBS, 0.05% Tween 20, 2 μM non-biotinylated affinity ligand) and incubated at RT with shaking for 30 min. The bromodomain concentration in the eluates was measured by quantitative polymerase chain reaction (qPCR).
An 11-point 3-fold serial dilution of each test compound was prepared in 100% DMSO at 1000× final test concentration. All compounds were distributed by acoustic transfer (non-contact dispensing) in 100% DMSO. The compounds were then diluted directly into the assays such that the final concentration of DMSO was 0.09%. Most dissociation constants were determined using a compound top concentration=10,000 nM. If the initial dissociation constant determined was <0.169 nM (the lowest concentration tested), the measurement was repeated with a serial dilution starting at a lower top concentration.
The same bromodomain assay procedure as that outlined above was used. Example compounds were screened at 30 times their Kd, and results for primary screen binding interactions are reported as ‘% Ctrl’, where lower numbers indicate stronger hits in the matrix.

[3] = Solubility in topical formulations; format: physicochemical; details: thermodynamic from solid, 5 hr at 32° C.
Procedure: The solubilities of solid exemplary compounds were determined in a selection of solvents and solvent combinations (Transcutol, 50:50 Transcutol:water, Labrasol, propylene glycol and 1:5:4 ethanol:propylene glycol:water), after equilibration. An appropriate volume of each combination was added to a manual weighing of solid compound to provide a 20 mg/mL concentration. The resulting suspension was shaken at 1000 rpm for 5 hr at 32° C. before centrifugation at 13,000×g for 10 min to pellet any precipitate. The supernatant solution was removed and inserted into a HPLC vial and quantified by HPLC-UV against a calibration of a known concentration of the compound in DMSO.

human liver hepatocytes = test: Intrinsic clearance in human liver hepatocytes; format: in vitro ADME; details: human cryopreserved hepatocytes, 0.5 μM test compound
Procedure, shortened: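 Cryopreserved human hepatocytes in supplemented Williams Medium E were incubated at 37 °C, 5% CO2, with 0.5 μM compound at 0.25 million cells/mL final. Aliquots taken up to 120 min were quenched into acetonitrile and analysed by UPLC-MS/MS. Clearance came from an exponential decay fit of compound-to-internal-standard ratio over time.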

[4] = Labrasol, oil or lipid, read-out: Solubility in LB (Labrasol)
[5] = Transcutol, organic solvent or mixture, read-out: Solubility in TC (Transcutol)
[6] = Transcutol:water 1:1, aqueous with cosolvent or surfactant or cyclodextrin, read-out: Solubility in TC:water 1:1
[7] = ethanol:propylene glycol:water 1:5:4, aqueous with cosolvent or surfactant or cyclodextrin, read-out: Solubility in EtOH:PG:water 1:5:4
[8] = propylene glycol, organic solvent or mixture, read-out: Solubility in PG (Propylene glycol)

Structure (SMILES): Cn1cc(-c2cccc(O)c2Oc2ccccc2)c2cc[nH]c2c1=O [Example 1, 4-(3-hydroxy-2-phenoxyphenyl)-6-methyl-1,6-dihydro-7H-pyrrolo[2,3-c]pyridin-7-one]
- decomposition at all pH values tested [1]: < 5%
- pH 4.0 % decomposition [1]: 0%
- pH 5.5 % decomposition [1]: 0%
- pH 7.4 % decomposition [1]: 0%
- half-life at 0.5 μM [2]: > 120 min
- Kd (BRD4 BD2): ≤ 10 nM
- BRD4(2) % Ctrl (BRD4 BD2; single point, screened at 30 times Kd, lower numbers indicate stronger hits): 2.6 % Ctrl
- solubility at 5 hr [3, 4]: 1000 to 10000 µg/mL
- solubility at 5 hr [3, 5]: > 10000 µg/mL
- solubility at 5 hr [3, 6]: 1000 to 10000 µg/mL
- solubility at 5 hr [3, 7]: 1000 to 10000 µg/mL
- solubility at 5 hr [3, 8]: 1000 to 10000 µg/mL
- Intrinsic clearance, % Liver Blood Flow (human liver hepatocytes): 83 % Liver Blood Flow

Structure (SMILES): Cn1cc(-c2c(O)cccc2Oc2ccccc2)c2cc[nH]c2c1=O [Example 3, 4-(2-hydroxy-6-phenoxyphenyl)-6-methyl-1,6-dihydro-7H-pyrrolo[2,3-c]pyridin-7-one]
- decomposition at all pH values tested [1]: < 5%
- pH 4.0 % decomposition [1]: 0%
- pH 5.5 % decomposition [1]: 0%
- pH 7.4 % decomposition [1]: 0%
- half-life at 0.5 μM [2]: > 120 min
- Kd (BRD4 BD2): ≤ 10 nM
- solubility at 5 hr [3, 4]: > 10000 µg/mL
- solubility at 5 hr [3, 5]: > 10000 µg/mL
- solubility at 5 hr [3, 6]: > 10000 µg/mL
- solubility at 5 hr [3, 7]: 1000 to 10000 µg/mL
- solubility at 5 hr [3, 8]: > 10000 µg/mL
- Intrinsic clearance, % Liver Blood Flow (human liver hepatocytes): 86 % Liver Blood Flow
